According to patent US20190135793A1, “HETEROCYCLIC INHIBITORS OF KDM5 FOR THE TREATMENT OF DISEASE” (Board of Regents, The University of Texas System, priority 2017, published 2019):
Where two headings read alike, the source gives them in different places.

Legend:
KDM5B = target: T1, KDM5B (Homo sapiens, UniProt Q9UGL1); test: biochemical
T1 construct: Full length of KDM5B and KDM4C protein were purchased from Active Motif; purchased Active Motif 31832
Experimental: (§1) KDM4C and KDM5B AlphaScreen Assay Material and Method
(§2) Compounds disclosed herein were (and can be) screened using the following assay.
Peptides used in all experiments were purchased from Anaspe. […] Final concentration of KDM5B and KDM4C used in the assay were 0.5 nM and 0.2 nM. Final concentration of peptides for 5B and 4C used in the assay were 3 nM.
(§3) 4 μL of KDM5B or KDM4C protein were added to 384-well OptiPlate by using multiflow, followed by 4 μl of either buffer or compound. Plates were sealed, spun down and incubated at RT for 15 min. 4 μl of biotinylated peptide was added to the plate, the plate was incubated at room temperature for 25 minutes (KDM5B) and 30 minutes (KDM4C) after sealed and spun down. Streptavidin donor beads and acceptor beads were diluted and mixed in the detection buffer with 7.5 mM EDTA, followed by adding 8 μl of acceptor and donor beads mix to the plate, before the plate was sealed and incubated at room temperature for 3 h or overnight at dark. The plate was read on Envision plate reader (PerkinElmer) using Alphascreen protocol. IC50s were calculated in GraphPad Prism 6.

KDM4C = target: T2, KDM4C (Homo sapiens, UniProt Q9H3R0); test: KDM4C AlphaScreen assay; format: biochemical; settings: AlphaScreen; full length KDM4C 0.2 nM; biotinylated H3K9Me3 peptide 3 nM; 30 minutes at room temperature
T2 construct: Full length of KDM5B and KDM4C protein were purchased from Active Motif; purchased Active Motif 31858
T2 sequence (Q9H3R0 1-1056): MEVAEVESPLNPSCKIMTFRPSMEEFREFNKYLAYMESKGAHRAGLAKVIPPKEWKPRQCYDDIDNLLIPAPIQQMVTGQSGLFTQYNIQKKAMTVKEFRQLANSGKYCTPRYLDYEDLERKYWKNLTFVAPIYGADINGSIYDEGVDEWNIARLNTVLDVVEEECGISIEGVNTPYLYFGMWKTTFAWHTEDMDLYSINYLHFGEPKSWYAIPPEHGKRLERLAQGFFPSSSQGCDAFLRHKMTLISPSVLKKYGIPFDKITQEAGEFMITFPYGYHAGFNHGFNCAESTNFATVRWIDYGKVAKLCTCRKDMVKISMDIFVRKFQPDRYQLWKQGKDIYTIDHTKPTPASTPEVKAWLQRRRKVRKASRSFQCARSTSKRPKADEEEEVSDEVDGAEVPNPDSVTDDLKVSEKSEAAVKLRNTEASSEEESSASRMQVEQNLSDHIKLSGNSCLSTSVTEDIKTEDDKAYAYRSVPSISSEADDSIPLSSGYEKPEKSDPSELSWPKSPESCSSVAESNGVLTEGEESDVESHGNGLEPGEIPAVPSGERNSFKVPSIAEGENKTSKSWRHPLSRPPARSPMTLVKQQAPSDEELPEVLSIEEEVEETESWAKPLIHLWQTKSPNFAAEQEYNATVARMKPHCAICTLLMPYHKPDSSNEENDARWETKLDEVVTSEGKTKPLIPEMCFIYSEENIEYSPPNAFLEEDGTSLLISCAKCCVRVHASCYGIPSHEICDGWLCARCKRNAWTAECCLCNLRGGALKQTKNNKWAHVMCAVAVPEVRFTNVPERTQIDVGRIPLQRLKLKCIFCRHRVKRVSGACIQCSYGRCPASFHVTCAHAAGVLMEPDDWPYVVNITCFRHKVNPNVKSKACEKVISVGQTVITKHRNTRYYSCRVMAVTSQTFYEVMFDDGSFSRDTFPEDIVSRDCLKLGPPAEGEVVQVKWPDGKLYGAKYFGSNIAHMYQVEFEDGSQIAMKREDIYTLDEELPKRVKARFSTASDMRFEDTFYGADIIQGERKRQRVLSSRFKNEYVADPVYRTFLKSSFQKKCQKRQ
Experimental: as §1, §2
Peptides used in all experiments were purchased from Anaspe. Full length of KDM5B and KDM4C protein were purchased from Active Motif: KDM5B (cat#31832) and KDM4C (Cat #31858). Final concentration of KDM5B and KDM4C used in the assay were 0.5 nM and 0.2 nM. Final concentration of peptides for 5B and 4C used in the assay were 3 nM.
as §3, with “AlphaScreen assays was conducted as following protocol: buffer used to make compound plate or DMSO is composed of 50 mM HEPES pH 7.4, 0.003% Tween-20; buffer used to dilute enzyme is composed of 50 mM HEPES pH 7.4, 0.003% Tween-20, 0.01% BSA, 500 μM TCEP; and buffer used to dilute the substrate is composed of 50 mM HEPES pH 7.4, 0.003% Tween-20, (NH4)2Fe(SO4)2 15 μM, alpha-ketoglutaric acid 4 μM and L-ascorbic acid 100 μM. 4 μL” for “4 μL”

[1] = AlphaScreen, full length KDM5B 0.5 nM, biotinylated H3K4Me3 peptide 3 nM, 25 minutes at room temperature, read-out: KDM5B (IC50)

T1 sequence (Q9UGL1 whole entry): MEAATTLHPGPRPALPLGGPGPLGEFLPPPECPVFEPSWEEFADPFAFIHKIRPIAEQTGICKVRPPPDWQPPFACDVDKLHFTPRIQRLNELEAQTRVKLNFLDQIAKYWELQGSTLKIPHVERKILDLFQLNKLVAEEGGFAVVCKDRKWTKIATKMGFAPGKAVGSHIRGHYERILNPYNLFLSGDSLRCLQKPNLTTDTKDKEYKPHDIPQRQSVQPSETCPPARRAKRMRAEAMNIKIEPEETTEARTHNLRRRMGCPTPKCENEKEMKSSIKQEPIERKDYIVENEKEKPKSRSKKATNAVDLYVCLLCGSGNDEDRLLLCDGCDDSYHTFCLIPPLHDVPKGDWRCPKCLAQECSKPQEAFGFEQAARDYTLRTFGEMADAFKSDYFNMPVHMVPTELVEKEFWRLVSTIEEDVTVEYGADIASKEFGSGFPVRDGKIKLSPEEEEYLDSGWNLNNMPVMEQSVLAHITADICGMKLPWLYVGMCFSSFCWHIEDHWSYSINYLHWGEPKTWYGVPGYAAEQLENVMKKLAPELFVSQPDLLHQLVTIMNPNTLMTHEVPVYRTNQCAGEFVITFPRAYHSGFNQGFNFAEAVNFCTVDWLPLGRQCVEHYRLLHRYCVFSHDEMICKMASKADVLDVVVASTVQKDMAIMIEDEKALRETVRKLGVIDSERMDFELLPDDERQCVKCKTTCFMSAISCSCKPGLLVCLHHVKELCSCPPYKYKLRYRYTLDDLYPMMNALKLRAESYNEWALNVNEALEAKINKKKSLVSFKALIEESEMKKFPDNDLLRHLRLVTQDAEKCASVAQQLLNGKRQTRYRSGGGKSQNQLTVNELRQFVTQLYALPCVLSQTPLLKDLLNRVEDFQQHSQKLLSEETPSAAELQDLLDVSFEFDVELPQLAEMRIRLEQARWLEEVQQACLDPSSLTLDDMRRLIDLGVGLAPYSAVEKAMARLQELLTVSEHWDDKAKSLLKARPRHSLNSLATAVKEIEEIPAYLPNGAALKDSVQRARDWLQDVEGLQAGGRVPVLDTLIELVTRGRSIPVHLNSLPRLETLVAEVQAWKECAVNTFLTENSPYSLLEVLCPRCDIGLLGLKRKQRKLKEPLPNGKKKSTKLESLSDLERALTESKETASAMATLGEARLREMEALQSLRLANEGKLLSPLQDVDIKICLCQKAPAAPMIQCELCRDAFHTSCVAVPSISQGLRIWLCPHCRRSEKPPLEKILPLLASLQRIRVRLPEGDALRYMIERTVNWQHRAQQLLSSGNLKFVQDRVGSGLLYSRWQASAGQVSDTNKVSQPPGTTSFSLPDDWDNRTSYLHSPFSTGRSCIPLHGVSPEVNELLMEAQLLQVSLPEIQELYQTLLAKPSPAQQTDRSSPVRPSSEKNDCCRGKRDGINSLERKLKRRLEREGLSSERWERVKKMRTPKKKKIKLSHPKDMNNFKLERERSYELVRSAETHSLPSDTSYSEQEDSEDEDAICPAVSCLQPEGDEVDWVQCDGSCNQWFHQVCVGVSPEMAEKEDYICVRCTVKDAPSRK

Row | SMILES | IC50 (KDM5B; [1]) | IC50 (KDM4C) | IC50 (KDM5B)
1 | CC(C)c1c(O)nc(-n2ccnc2)nc1OCC1CN(C(=O)OCc2ccccc2)CCN1 (stereo not drawn) [Example 127, Benzyl 3-({[6-hydroxy-2-(1H-imidazol-1-yl)-5-(propan-2-yl)pyrimidin-4-yl]-oxy}methyl)piperazine-1-carboxylate] | 18 nM | 3080 nM | –
2 | CC(C)c1c(O)nc(-n2ccnc2)nc1-c1cnn(CC(=O)N2CCC(O)CC2)c1 [Example 119, 2-{4-[6-Hydroxy-2-(1H-imidazol-1-yl)-5-(propan-2-yl)pyrimidin-4-yl]-1H-pyrazol-1-yl}-1-(4-hydroxy-piperidin-1-yl)ethan-1-one] | 39 nM | 1850 nM | –
3 | CC(C)c1c(O)nc(-c2cncs2)nc1OCC(C)(C)CO [Example 147, 6-(3-Hydroxy-2,2-dimethylpropoxy)-5-(propan-2-yl)-2-(1,3-thiazol-5-yl)-pyrimidin-4-ol] | – | 12400 nM | 1470 nM
4 | CC(C)c1c(O)nc(-n2ccnc2)nc1NCc1cccnc1 [Example 18, 2-(1H-Imidazol-1-yl)-5-isopropyl-6-((pyridin-3-ylmethyl)amino)pyrimidin-4-ol] | – | 2970 nM | 27 nM
5 | CC(C)c1c(O)nc(-n2ccnc2)nc1OCC1(N)CC1 [Example 128, 6-[(1-Aminocyclopropyl)-methoxy]-2-(1H-imidazol-1-yl)-5-(propan-2-yl)pyrimidin-4-ol] | 19 nM | 1400 nM | –
6 | Cc1nc(-n2cnc(CO)c2)nc(O)c1C(C)C [Example 24b, 2-[4-(hydroxymethyl)imidazol-1-yl]-5-isopropyl-6-methyl-pyrimidin-4-ol] | – | 16800 nM | 1260 nM
7 | CC(C)c1c(O)nc(-n2ccnc2)nc1-c1cnn(CCC#N)c1 [Example 44, 3-{4-[6-Hydroxy-2-(1H-imidazol-1-yl)-5-(propan-2-yl)pyrimidin-4-yl]-1H-pyrazol-1-yl}propanenitrile] | – | 815 nM | 10 nM
8 | COCCNC(=O)Cn1cc(-c2nc(-n3ccnc3)nc(O)c2C(C)C)cn1 [Example 118, 2-{4-[6-Hydroxy-2-(1H-imidazol-1-yl)-5-(propan-2-yl)pyrimidin-4-yl]-1H-pyrazol-1-yl}-N-(2-methoxy-ethyl)acetamide] | – | 3080 nM | 33 nM
9 | Cc1ccc(-c2nc(-n3ccnc3)nc(O)c2C(C)C)cc1N [Example 54, 6-(3-Amino-4-methylphenyl)-2-(1H-imidazol-1-yl)-5-(propan-2-yl)pyrimidin-4-ol] | – | 896 nM | 15 nM
10 | CC(C)Cn1cc(-c2nc(-n3ccnc3)nc(O)c2C(C)C)cn1 [Example 65, 2-(1H-Imidazol-1-yl)-6-[1-(2-methylpropyl)-1H-pyrazol-4-yl]-5-(propan-2-yl)pyrimidin-4-ol] | – | 937 nM | 19 nM
11 | Oc1nc(-c2cncs2)ncc1C1CC1 [Example 32, 5-cyclopropyl-2-(thiazol-5-yl)pyrimidin-4-ol] | – | 14100 nM | 4420 nM
12 | CC(C)c1c(O)nc(-n2ccnc2)nc1-c1ccc(C(=O)NCCN(C)C)nc1 [Example 8, N-(2-(dimethylamino)ethyl)-5-(6-hydroxy-2-(1H-imidazol-1-yl)-5-isopropylpyrimidin-4-yl)-picolinamide] | – | 752 nM | 8 nM
13 | CC(C)c1c(O)nc(-n2ccnc2)nc1-c1cnn(CC(=O)NCCN2CCC(F)(F)CC2)c1 [Example 96, N-[2-(4,4-Difluoropiperidin-1-yl)ethyl]-2-{4-[6-hydroxy-2-(1H-Imidazol-1-yl)-5-(propan-2-yl)pyrimidin-4-yl]-1H-pyrazol-1-yl}acetamide] | – | 779 nM | 7 nM
14 | COc1nc(-n2ccnc2)nc(O)c1C(C)C [Example 12, 2-(1H-Imidazol-1-yl)-5-isopropyl-6-methoxypyrimidin-4-ol] | – | 1460 nM | 107 nM
15 | CC(C)c1c(O)nc(-n2ccnc2)nc1-c1cnn(CC(=O)NCC(N)=O)c1 [Example 114, N-(Carbamoylmethyl)-2-{4-[6-hydroxy-2-(1H-imidazol-1-yl)-5-(propan-2-yl)pyrimidin-4-yl]-1H-pyrazol-1-yl}-acetamide] | – | 2030 nM | 26 nM
16 | CC(C)c1c(O)nc(-n2ccnc2)nc1-c1cnn(C)c1 [Example 55, 2-(1H-Imidazol-1-yl)-6-(1-methyl-1H-pyrazol-4-yl)-5-(propan-2-yl)pyrimidin-4-ol] | – | 1340 nM | 15 nM
17 | CC(C)c1c(O)nc(-n2ccnc2)nc1-c1cnn(CCN2CCOCC2)c1 [Example 68, 2-(1H-Imidazol-1-yl)-6-{1-[2-(morpholin-4-yl)ethyl]-1H-pyrazol-4-yl}-5-(propan-2-yl)pyrimidin-4-ol] | – | 2450 nM | 21 nM
18 | CC(C)c1c(O)nc(-n2ccnc2)nc1-c1ccc(C(=O)NCC(=O)O)cc1 [Example 85, 2-({4-[6-Hydroxy-2-(1H-imidazol-1-yl)-5-(propan-2-yl)pyrimidin-4-yl]phenyl}-formamido)acetic acid] | – | 9710 nM | 240 nM
19 | CC(C)c1c(O)nc(-n2ccnc2)nc1-c1ccc(CO)cc1 [Example 58, 6-[4-(Hydroxymethyl)-phenyl]-2-(1H-imidazol-1-yl)-5-(propan-2-yl)pyrimidin-4-ol] | – | 1220 nM | 16 nM
20 | CC(C)c1c(O)nc(-n2ccnc2)nc1OCC1CCOCC1 [Example 139, 2-(1H-Imidazol-1-yl)-6-(oxan-4-ylmethoxy)-5-(propan-2-yl)pyrimidin-4-ol] | 75 nM | 3680 nM | –
21 | Cc1nc(-n2ccnc2CO)nc(O)c1C(C)C [Example 25, 2-[2-(hydroxymethyl)imidazol-1-yl]-5-isopropyl-6-methyl-pyrimidin-4-ol] | – | 613 nM | 48 nM
22 | CCn1cc(-c2nc(-n3ccnc3)nc(O)c2C(C)C)cn1 [Example 66, 6-(1-Ethyl-1H-pyrazol-4-yl)-2-(1H-imidazol-1-yl)-5-(propan-2-yl)pyrimidin-4-ol] | – | 1180 nM | 19 nM
23 | CC(C)c1c(O)nc(-n2ccnc2)nc1C#Cc1cccnc1 [Example 10a, 2-(1H-imidazol-1-yl)-5-(propan-2-yl)-6-[2-(pyridin-3-yl)ethynyl]pyrimidin-4-ol] | – | 908 nM | 11 nM
24 | COC(=O)COc1nc(-n2ccnc2)nc(O)c1C(C)C [Example 133, Methyl 2-{[6-hydroxy-2-(1H-imidazol-1-yl)-5-(propan-2-yl)pyrimidin-4-yl]oxy}acetate] | – | 1330 nM | 30 nM
